Results as given in PMC10050424, “Structural basis of the substrate recognition and inhibition mechanism of Plasmodium falciparum nucleoside transporter PfENT1” (Nature Communications, 2023).

Biological target: T1, PfENT1Y190A (Plasmodium falciparum, UniProt Q8IDM6, Y190A)
T1 construct: 10xHis (N); made in house; host or cells: Sf9 insect cells (baculovirus)
T1 sequence (Q8IDM6 1-422 Y190A): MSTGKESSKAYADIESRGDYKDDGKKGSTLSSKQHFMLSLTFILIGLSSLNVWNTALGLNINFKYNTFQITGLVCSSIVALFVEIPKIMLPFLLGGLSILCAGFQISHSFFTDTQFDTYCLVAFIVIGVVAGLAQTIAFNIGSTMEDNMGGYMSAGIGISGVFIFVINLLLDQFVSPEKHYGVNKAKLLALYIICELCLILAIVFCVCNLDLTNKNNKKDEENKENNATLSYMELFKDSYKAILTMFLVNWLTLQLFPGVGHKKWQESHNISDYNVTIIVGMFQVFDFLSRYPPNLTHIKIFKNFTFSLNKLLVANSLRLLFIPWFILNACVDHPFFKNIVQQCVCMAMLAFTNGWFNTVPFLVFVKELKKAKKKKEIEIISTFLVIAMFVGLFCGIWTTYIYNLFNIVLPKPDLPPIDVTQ
Assay: ITC binding to PfENT1Y190A
Conditions: compared with wild type
Experimental: For the in vitro binding assay, Sf9 cells were solubilized in lysis buffer containing 2% (w/v) n-dodecyl-β-D-maltopyranoside (DDM, Anatrace) and protease inhibitor cocktail (0.8 μM aprotinin, 2 μM pepstatin, and 5 μg/ml leupeptin) at 4 °C for 2 h. The soluble supernatant was collected via centrifugation and incubated with Ni-NTA resin (QIAGEN) at 4 °C for 1 h. The resin was washed and eluted using lysis buffer containing 0.05% (w/v) DDM and 30 mM/300 mM imidazole. The protein was further purified by size-exclusion chromatography (Superdex 200 Increase 10/300; GE Healthcare) in buffer containing 25 mM MES (pH 6.0), 150 mM NaCl, and 0.05% (w/v) DDM. The peak fractions were pooled and concentrated to 10~50 μM for the nucleoside-binding assay.
The binding affinity between wild-type and mutant PfENT1 with nucleosides and GSK4 was measured using a Micro-Cal ITC200 (Malvern). All proteins were prepared in 25 mM MES (pH 6.0), 150 mM NaCl, and 0.05% (w/v) DDM. Nucleosides (5~10 mM) and GSK4 (100-200 μM) dissolved in the same buffer were titrated against 20–50 μM PfENT1 proteins at 25 °C. PEAQ-ITC analysis software (MicroCal) was employed to analyze the data. All titrations were repeated three times.

## OC[C@H]1O[C@@H](n2cnc3c(O)ncnc32)[C@H](O)[C@@H]1O [Inosine, inosine]
  inosine-binding affinity: similar
